pKd: −log10 of the molar value.
Target: ASGPR (Homo sapiens (Human), UniProt P07306)
Test: Affinity to ASGPR measured by surface plasmon resonance (SPR)
Assay type: binding
Details: ASGPR ligands with linker, Table 5; read-out: ASGPR_SPR Binding KD

Chain of ASGPR (P07306 whole entry): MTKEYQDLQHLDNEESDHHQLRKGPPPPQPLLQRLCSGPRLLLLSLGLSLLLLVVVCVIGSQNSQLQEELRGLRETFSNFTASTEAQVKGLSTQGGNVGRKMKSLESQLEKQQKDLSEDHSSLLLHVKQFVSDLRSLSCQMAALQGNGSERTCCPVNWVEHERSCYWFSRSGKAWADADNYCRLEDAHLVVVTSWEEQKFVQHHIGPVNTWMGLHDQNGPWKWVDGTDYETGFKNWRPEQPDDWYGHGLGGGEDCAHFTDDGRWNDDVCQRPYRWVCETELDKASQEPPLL

| Compound | pKd |
| --- | --- |
| NC(COCCC(=O)NCCOCCOCCOCCOC[C@H]1OC[C@H](Nc2nccc(C(F)(F)F)n2)[C@@H](O)[C@H]1O)COCCC(=O)NCCOCCOCCOCCOC[C@H]1OC[C@H](Nc2nccc(C(F)(F)F)n2)[C@@H](O)[C@H]1O [Compound A422, 3,3′-((2-aminopropane-1,3-diyl)bis(oxy))bis(N-(1-((2R,3R,4R,5S)-3,4-dihydroxy-5-((4-(trifluoromethyl)pyrimidin-2-yl)amino)tetrahydro-2H-pyran-2-yl)-2,5,8,11-tetraoxatridecan-13-yl)propanamide)] | > 4.00 |

Same assay, conditions: ASGPR ligands, Table 4; class symbols; read-out: ASGPR_PR Binding KD

| Compound | pKd |
| --- | --- |
| CS(=O)(=O)c1ccnc(N[C@H]2CO[C@H](CO)[C@H](O)[C@@H]2O)n1 [Compound A371, (2R,3R,4R,5S)-2-(hydroxymethyl)-5-((4-(methylsulfonyl)pyrimidin-2-yl)amino)tetrahydro-2H-pyran-3,4-diol] | > 4.00 |
| N#Cc1nc(N[C@H]2CO[C@H](CO)[C@H](O)[C@@H]2O)c2cccn2n1 [Compound A373, 4-(((3S,4R,5R,6R)-4,5-dihydroxy-6-(hydroxymethyl)tetrahydro-2H-pyran-3-yl)amino)pyrrolo[2,1-f][1,2,4]triazine-2-carbonitrile] | > 4.00 |
| CO[C@H]1O[C@H](CO)[C@H](O)[C@H](O)[C@H]1Nc1nccc(C(F)(F)F)n1 [Compound A377] | > 4.00 |
| CO[C@H]1O[C@H](CO)[C@H](O)[C@H](O)[C@H]1Nc1ncns1 [Compound A378] | > 4.00 |
| CO[C@H]1O[C@H](CO)[C@H](O)[C@H](O)[C@H]1Nc1nc(Cl)c(C#N)s1 [Compound A379] | > 4.00 |
| CO[C@H]1O[C@H](CO)[C@H](O)[C@H](O)[C@H]1Nc1cccc(F)n1 [Compound A380] | > 4.00 |
| CO[C@H]1O[C@H](CO)[C@H](O)[C@H](O)[C@H]1Nc1cccc(C(F)(F)F)n1 [Compound A381] | > 4.00 |
| CO[C@H]1O[C@H](CO)[C@H](O)C[C@H]1Nc1nc(N2CCOCC2)ns1 [Compound A382] | > 4.00 |
| CO[C@@H]1O[C@H](CO)[C@H](O)[C@H](O)[C@H]1Nc1ncc(F)cc1F [Compound A383, (2R,3R,4R,5R,6R)-5-((3,5-difluoropyridin-2-yl)amino)-2-(hydroxymethyl)-6-methoxytetrahydro-2H-pyran-3,4-diol] | > 4.00 |
| CO[C@@H]1O[C@H](CO)[C@H](O)[C@H](O)[C@H]1Nc1nccc(C(F)(F)F)n1 [Compound A384] | > 4.00 |
| CN1CCN([C@@H]2CO[C@H](CO)[C@H](O)[C@@H]2O)C1=O [Compound A392, 1-((3R,4R,5R,6R)-4,5-dihydroxy-6-(hydroxymethyl)tetrahydro-2H-pyran-3-yl)-3-methylimidazolidin-2-one] | 3.30 to 4.00 |
| CN(C)[C@@H]1CO[C@H](CO)[C@H](O)[C@@H]1O [Compound A393, (2R,3R,4R,5R)-5-(dimethylamino)-2-(hydroxymethyl)tetrahydro-2H-pyran-3,4-diol] | 3.30 to 4.00 |
| OC[C@H]1O[C@H]2[C@@H]([C@@H](O)[C@H]1O)C2(Cl)Cl [Compound A397, (1S,3R,4R,5R,6R)-7,7-dichloro-3-(hydroxymethyl)-2-oxabicyclo[4.1.0]heptane-4,5-diol] | 3.30 to 4.00 |
| C=CCO[C@H]1O[C@H](CO)[C@H](O)[C@H](O)[C@H]1NC(=O)C(F)(F)F [Compound A404, N-((2S,3R,4R,5R,6R)-2-(allyloxy)-4,5-dihydroxy-6-(hydroxymethyl)tetrahydro-2H-pyran-3-yl)-2,2,2-trifluoroacetamide] | > 4.00 |
| C=CCO[C@H]1O[C@H](CO)[C@H](O)[C@H](O)[C@H]1Nc1nc(Cl)ns1 [Compound A405, (2R,3R,4R,5R,6S)-6-(allyloxy)-5-((3-chloro-1,2,4-thiadiazol-5-yl)amino)-2-(hydroxymethyl)tetrahydro-2H-pyran-3,4-diol] | > 4.00 |
| C=CCO[C@H]1O[C@H](CO)[C@H](O)[C@H](O)[C@H]1Nc1nccc(C(F)(F)F)n1 [Compound A406, (2R,3R,4R,5R,6S)-6-(allyloxy)-2-(hydroxymethyl)-5-((4-(trifluoromethyl)pyrimidin-2-yl)amino)tetrahydro-2H-pyran-3,4-diol] | > 4.00 |
| NC[C@@H]1CO[C@H](CO)[C@H](O)[C@@H]1O [Compound A425, (2R,3R,4R,5R)-5-(aminomethyl)-2-(hydroxymethyl)tetrahydro-2H-pyran-3,4-diol] | < 3.00 |
| COc1cc(N[C@H]2[C@H]3OC[C@](CO)(O3)[C@H](O)[C@@H]2O)nc(C#N)n1 [Compound A426] | > 4.00 |
| OC[C@@]12CO[C@@H](O1)[C@H](Nc1cncc(C(F)(F)F)n1)[C@@H](O)[C@H]2O [Compound A427] | > 4.00 |
| (2R,3R,4R,5R)-2-(hydroxymethyl)-5-((4-methylpiperazin-1-yl)methyl)tetrahydro-2H-pyran-3,4-diol [Compound A212] | 3.30 to 4.00 |

Same assay, conditions: ASGPR ligands, Table 4; numeric lower bounds; read-out: ASGPR_PR Binding KD

| Compound | pKd |
| --- | --- |
| CCOc1cc(C#N)nc(N[C@H]2CO[C@H](CO)[C@H](O)[C@@H]2O)n1 [Compound A368, 2-(((3S,4R,5R,6R)-4,5-dihydroxy-6-(hydroxymethyl)tetrahydro-2H-pyran-3-yl)amino)-6-ethoxypyrimidine-4-carbonitrile] | < 4.70 |
| CS(=O)(=O)c1nc(Cl)cc(N[C@H]2CO[C@H](CO)[C@H](O)[C@@H]2O)n1 [Compound A370, (2R,3R,4R,5S)-5-((6-chloro-2-(methylsulfonyl)pyrimidin-4-yl)amino)-2-(hydroxymethyl)tetrahydro-2H-pyran-3,4-diol] | < 5.00 |
| N#Cc1cnc(N[C@H]2CO[C@H](CO)[C@H](O)[C@@H]2O)s1 [Compound A372, 2-(((3S,4R,5R,6R)-4,5-dihydroxy-6-(hydroxymethyl)tetrahydro-2H-pyran-3-yl)amino)thiazole-5-carbonitrile] | < 4.70 |
| COC(=O)c1cc(OC)nc(N[C@H]2CO[C@H](CO)[C@H](O)[C@@H]2O)n1 [Compound A374, methyl 2-(((3S,4R,5R,6R)-4,5-dihydroxy-6-(hydroxymethyl)tetrahydro-2H-pyran-3-yl)amino)-6-methoxypyrimidine-4-carboxylate] | < 4.70 |
| CO[C@@H]1O[C@H](CO)[C@H](O)[C@H](O)[C@H]1Nc1nc(C(=O)O)cs1 [Compound A385] | < 3.70 |
| CO[C@@H]1O[C@H](CO)[C@H](O)[C@H](O)[C@H]1Nc1nc(C#N)cs1 [Compound A386] | < 4.70 |
| OC[C@H]1OC[C@@H](Nc2ncc(Cl)cc2F)[C@@H](O)[C@H]1O [Compound A388] | < 4.70 |
| OC[C@H]1OC[C@@H](NC2=NCCC(C(F)(F)F)=N2)[C@@H](O)[C@H]1O [Compound A389] | < 4.70 |
| CN1CCN(C[C@@H]2CO[C@H](CO)[C@H](O)[C@@H]2O)CC1 [Compound A390, (2R,3R,4R,5R)-2-(hydroxymethyl)-5-((4-methylpiperazin-1-yl)methyl) tetrahydro-2H-pyran-3,4-diol] | < 3.70 |
| Cn1cc([C@@H]2CO[C@H](CO)[C@H](O)[C@@H]2O)cn1 [Compound A394, (2R,3R,4R,5R)-2-(hydroxymethyl)-5-(1-methyl-1H-pyrazol-4-yl)tetrahydro-2H-pyran-3,4-diol] | < 3.70 |
| OC[C@H]1OC[C@@H](c2cncnc2)[C@@H](O)[C@H]1O [Compound A395, (2R,3R,4R,5R)-2-(hydroxymethyl)-5-(pyrimidin-5-yl)tetrahydro-2H-pyran-3,4-diol] | < 3.70 |
| NC(=O)C[C@@H]1CO[C@H](CO)[C@H](O)[C@@H]1O [Compound A399, 2-((3R,4R,5R,6R)-4,5-dihydroxy-6-(hydroxymethyl)tetrahydro-2H-pyran-3-yl)acetamide] | < 3.70 |
| CNC(=O)[C@@H]1CO[C@H](CO)[C@H](O)[C@@H]1O [Compound A400, (3R,4R,5R,6R)-4,5-dihydroxy-6-(hydroxymethyl)-N-methyltetrahydro-2H-pyran-3-carboxamide] | < 3.70 |
| COC(=O)[C@@H]1CO[C@H](CO)[C@H](O)[C@@H]1O [Compound A401, methyl (3R,4R,5R,6R)-4,5-dihydroxy-6-(hydroxymethyl)tetrahydro-2H-pyran-3-carboxylate] | < 3.70 |
| CC(=O)NCCNC[C@@H]1CO[C@H](CO)[C@H](O)[C@@H]1O [Compound A402, N-(2-((((3R,4R,5R,6R)-4,5-dihydroxy-6-(hydroxymethyl)tetrahydro-2H-pyran-3-yl)methyl)amino)ethyl)acetamide] | < 3.70 |
| NC(=O)NC[C@@H]1CO[C@H](CO)[C@H](O)[C@@H]1O [Compound A403, 1-(((3R,4R,5R,6R)-4,5-dihydroxy-6-(hydroxymethyl)tetrahydro-2H-pyran-3-yl)methyl)urea] | < 4.70 |

Source: US20240072809A1, “ASGPR-BINDING COMPOUNDS FOR THE DEGRADATION OF EXTRACELLULAR PROTEINS” (Avilar Therapeutics, Inc., priority 2020, published 2024)
